The supplement of paper PMC8671470

Tests used:
Details in all cases: 72 h
[1] = tested on: SHI-1
Method in brief: (§1)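 The IC50 was read from log-logistic dose–response fits. Fifteen myeloid leukaemia lines were exposed for 72 h at 37 °C with 5% CO2 to five tenfold doses from 1 to 10,000 nM in duplicate. ATP luminescence, normalised to vehicle and to a 10 µM positive control, was fitted with four parameters.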

[2] = tested on: KG-1
Method in brief: as §1

[3] = tested on: KU-812
Method in brief: as §1

[4] = tested on: MV4-11
Method in brief: as §1

[5] = tested on: ML-2
Method in brief: as §1

[6] = tested on: K-562
Method in brief: as §1

[7] = tested on: NOMO-1
Method in brief: as §1

[8] = tested on: THP-1
Method in brief: as §1

[9] = tested on: MOLM-13
Method in brief: as §1

[10] = tested on: HL-60
Method in brief: as §1

[11] = tested on: Mono-Mac-6
Method in brief: as §1

[12] = tested on: BV-173
Method in brief: as §1

[13] = tested on: HEL
Method in brief: as §1

[14] = tested on: LAMA-84
Method in brief: as §1

[15] = tested on: myeloid leukemia patient primary cells Pat.10; test: cell viability (% survival relative to DMSO control); higher = less cytotoxic
Method in brief: (§2)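 Seventy compounds were pre-printed on 384-well plates at five tenfold concentrations between 1 and 10,000 nM, in duplicate. Thawed mononuclear cells purified by Ficoll from AML or CML patients were added at 10,000 cells/well in RPMI 1640 with 10% FBS for 72 h. Viability by CellTiter-Glo was normalised to DMSO and 10 μM proteasome-inhibitor wells. Where stated, area under the curve was taken from log-logistic fits made with the drc and PharmacoGx R packages, each fit having four parameters.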

[16] = tested on: myeloid leukemia patient primary cells Pat.9; test: as above
Method in brief: as §2

[17] = tested on: myeloid leukemia patient primary cells Pat.15; test: as above
Method in brief: as §2

[18] = tested on: myeloid leukemia patient primary cells Pat.8; test: as above
Method in brief: as §2

[19] = tested on: myeloid leukemia patient primary cells Pat.5; test: as above
Method in brief: as §2

[20] = tested on: myeloid leukemia patient primary cells Pat.13; test: as above
Method in brief: as §2

[21] = tested on: myeloid leukemia patient primary cells Pat.14; test: as above
Method in brief: as §2

[22] = tested on: myeloid leukemia patient primary cells Pat.6; test: as above
Method in brief: as §2

[23] = tested on: myeloid leukemia patient primary cells Pat.12; test: as above
Method in brief: as §2

[24] = tested on: myeloid leukemia patient primary cells Pat.7; test: as above
Method in brief: as §2

[25] = tested on: myeloid leukemia patient primary cells Pat.3; test: as above
Method in brief: as §2

[26] = tested on: myeloid leukemia patient primary cells Pat.11; test: as above
Method in brief: as §2

[27] = tested on: myeloid leukemia patient primary cells Pat.2; test: as above
Method in brief: as §2

[28] = tested on: myeloid leukemia patient primary cells Pat.1; test: as above
Method in brief: as §2

[29] = tested on: myeloid leukemia patient primary cells Pat.4; test: as above
Method in brief: as §2

For NCc1ccc(-c2cccnc2)s1 [(5-Pyrid-3-YLTHIEN-2-YL)METHYLAMINE], the “IC50 (cell viability)” value [1] was > 10 µM, the “IC50 (cell viability)” value [2] was > 10 µM and the “IC50 (cell viability)” value [3] was > 10 µM. For the same molecule, the “IC50 (cell viability)” value [4] was > 10 µM, the “IC50 (cell viability)” value [5] was > 10 µM and the “IC50 (cell viability)” value [6] was > 10 µM. The “IC50 (cell viability)” value [7] was > 10 µM, the “IC50 (cell viability)” value [8] was > 10 µM and the “IC50 (cell viability)” value [9] was > 10 µM. For the same molecule, the “IC50 (cell viability)” value [10] was > 10 µM, the “IC50 (cell viability)” value [11] was > 10 µM and the “IC50 (cell viability)” value [12] was > 10 µM. For the same molecule, the “IC50 (cell viability)” value [13] was > 10 µM and the “IC50 (cell viability)” value [14] was > 10 µM.
Cc1nnc(-c2ccc(N3CCC(Oc4ccccc4C(F)(F)F)CC3)nn2)s1 [MF-438] showed a cell viability ([15]; 1 nM) of 80.2%, a cell viability ([15]; 10 nM) of 89.2% and a cell viability ([15]; 100 nM) of 96.8%. For the same molecule, the cell viability ([15]; 1000 nM) was 87.5%, the cell viability ([15]; 10000 nM) was > 100% and the cell viability ([16]; 1 nM) was 56.2%. For the same molecule, the cell viability ([16]; 10 nM) was 91.2%, the cell viability ([16]; 100 nM) was 87.2% and the cell viability ([16]; 1000 nM) was 69.3%. For the same molecule, the cell viability ([16]; 10000 nM) was 75.2%, the cell viability ([17]; 1 nM) was 97.4% and the cell viability ([17]; 10 nM) was 89.5%. The cell viability ([17]; 100 nM) was 98.7%, the cell viability ([17]; 1000 nM) was 86.9% and the cell viability ([17]; 10000 nM) was 69.8%. The cell viability ([18]; 1 nM) was 86.9%, the cell viability ([18]; 10 nM) was 94.5% and the cell viability ([18]; 100 nM) was 77.7%. For the same molecule, the cell viability ([18]; 1000 nM) was 86.9%, the cell viability ([18]; 10000 nM) was 94.9% and the cell viability ([19]; 1 nM) was 32.8%. The cell viability ([19]; 10 nM) was 93.8%, the cell viability ([19]; 100 nM) was 67.7% and the cell viability ([19]; 1000 nM) was 46.4%. It also gave a cell viability ([19]; 10000 nM) of 27.4%, a cell viability ([20]; 1 nM) of 86.8% and a cell viability ([20]; 10 nM) of 86.4%. The cell viability ([20]; 100 nM) was 86.9%, the cell viability ([20]; 1000 nM) was 80.8% and the cell viability ([20]; 10000 nM) was 97.4%. For the same molecule, the cell viability ([21]; 1 nM) was 85%, the cell viability ([21]; 10 nM) was > 100% and the cell viability ([21]; 100 nM) was 87.8%. The cell viability ([21]; 1000 nM) was 83.5%, the cell viability ([21]; 10000 nM) was 92.2% and the cell viability ([22]; 1 nM) was 95.4%. The cell viability ([22]; 10 nM) was 98.9%, the cell viability ([22]; 100 nM) was 99.5% and the cell viability ([22]; 1000 nM) was 83%. The cell viability ([22]; 10000 nM) was 85.3%, the cell viability ([23]; 1 nM) was 99.4% and the cell viability ([23]; 10 nM) was 97.1%. The cell viability ([23]; 100 nM) was > 100%, the cell viability ([23]; 1000 nM) was 87.5% and the cell viability ([23]; 10000 nM) was 90.5%. The cell viability ([24]; 1 nM) was > 100%, the cell viability ([24]; 10 nM) was 93.3% and the cell viability ([24]; 100 nM) was 99.7%. It also gave a cell viability ([24]; 1000 nM) of 74.4%, a cell viability ([24]; 10000 nM) of 41.2% and a cell viability ([25]; 1 nM) of 76.3%. The cell viability ([25]; 10 nM) was 77.5%, the cell viability ([25]; 100 nM) was 72.9% and the cell viability ([25]; 1000 nM) was 61.3%. It also gave a cell viability ([25]; 10000 nM) of 74.1%, a cell viability ([26]; 1 nM) of 94% and a cell viability ([26]; 10 nM) of 96.6%. The cell viability ([26]; 100 nM) was > 100%, the cell viability ([26]; 1000 nM) was > 100% and the cell viability ([26]; 10000 nM) was 90.6%. The cell viability ([27]; 1 nM) was > 100%, the cell viability ([27]; 10 nM) was 99.8% and the cell viability ([27]; 100 nM) was 95.4%. The cell viability ([27]; 1000 nM) was 87.6%, the cell viability ([27]; 10000 nM) was 89.7% and the cell viability ([28]; 1 nM) was 78.8%. It also gave a cell viability ([28]; 10 nM) of 85.8%, a cell viability ([28]; 100 nM) of 97.1% and a cell viability ([28]; 1000 nM) of 90.5%. It also gave a cell viability ([28]; 10000 nM) of 82.8%, a cell viability ([29]; 1 nM) of 83.7% and a cell viability ([29]; 10 nM) of 98.5%. It also gave a cell viability ([29]; 100 nM) of 87.9%, a cell viability ([29]; 1000 nM) of 85.8% and a cell viability ([29]; 10000 nM) of 68.8%. For the same molecule, the “IC50 (cell viability)” value [1] was > 10 µM, the “IC50 (cell viability)” value [2] was > 10 µM and the “IC50 (cell viability)” value [3] was > 10 µM. The “IC50 (cell viability)” value [4] was 9.32 µM, the “IC50 (cell viability)” value [5] was > 10 µM and the “IC50 (cell viability)” value [6] was 0.0472 µM. For the same molecule, the “IC50 (cell viability)” value [7] was > 10 µM, the “IC50 (cell viability)” value [8] was > 10 µM and the “IC50 (cell viability)” value [9] was 0.0687 µM. The “IC50 (cell viability)” value [10] was > 10 µM, the “IC50 (cell viability)” value [11] was > 10 µM and the “IC50 (cell viability)” value [12] was > 10 µM. For the same molecule, the “IC50 (cell viability)” value [13] was > 10 µM and the “IC50 (cell viability)” value [14] was > 10 µM.
For CN(C)C(=O)n1nnnc1Cc1ccc(-c2ccccc2)cc1, the “IC50 (cell viability)” value [1] was 3.74 µM, the “IC50 (cell viability)” value [2] was 1.17 µM and the “IC50 (cell viability)” value [3] was 1.89 µM. For the same molecule, the “IC50 (cell viability)” value [4] was 1.77 µM, the “IC50 (cell viability)” value [5] was 1.5 µM and the “IC50 (cell viability)” value [6] was 1.88 µM. The “IC50 (cell viability)” value [7] was 4.43 µM, the “IC50 (cell viability)” value [8] was 1.74 µM and the “IC50 (cell viability)” value [9] was 3.38 µM. For the same molecule, the “IC50 (cell viability)” value [10] was 3.63 µM, the “IC50 (cell viability)” value [11] was 2.48 µM and the “IC50 (cell viability)” value [12] was 0.422 µM. The “IC50 (cell viability)” value [13] was 2.41 µM and the “IC50 (cell viability)” value [14] was 2.45 µM.
